Test results: PubChem BioAssay (NCI)
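48-hour exposure; five concentrations; linearly interpolated endpoints. GI50 is the concentration that inhibits growth by half. The concentration for full growth arrest is given as TGI.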

System: MDA-MB-468 breast
Assay: inhibition of tumour cell growth, NCI panel, 48 h

`O=S(=O)(Nc1ccc(Cl)c(C(F)(F)F)c1)c1ccc(-c2cnc(C3CC3)o2)cc1` was tested. Which GI50 did it give?
Its GI50 is 0.144 µM.

What about the TGI of the same molecule?
The TGI was 3.1 µM.

Which results are given for `C=CCSc1n[nH]c(-c2cccs2)n1`?
GI50: > 100 µM; TGI: > 100 µM

Which results are given for `CN(C)CCCC1(c2ccc(F)cc2)OCc2cc(-c3ccc4cc[nH]c4c3)ccc21` (stereo not given)?
GI50: 1.75 µM; TGI: 3.44 µM

`CCn1c2ccccc2c2cc(-n3nncc3-c3ccccc3)ccc21` was tested. Which GI50 did it give?
Its GI50 is 0.437 µM.

What about the TGI of the same molecule?
Its TGI is greater than 100 µM.

How did the GI50 turn out when `CCOC(=O)C(=Cc1ccc(Br)cc1)C(=O)OCC` was run?
The GI50 was 1.67 µM.

And the TGI?
The TGI was 3.45 µM.
